Laboratory results as given in the METLIN SMRT retention time set (Domingo-Almenara et al. 2019).

Assay: gradient 5% acetonitrile 3 min, to 50% in 2 min, to 85% in 15 min, held 3 min, 100 µL/min
Settings: column: Zorbax Extend-C18 2.1 x 50 mm; eluents: water / acetonitrile, 0.1% formic acid
How it was run: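 Over 3 months, pure standards in mixtures of ~100 molecules were run by HPLC coupled to a quadrupole time-of-flight mass spectrometer in positive and negative ionization mode. The column was a Zorbax Extend-C18 (2.1 × 50 mm, 1.8 μm) at 100 μL/min, eluted with water and acetonitrile each holding 0.1% formic acid, with 40 μL dead and 900 μL dwell volumes. Retention time was determined from adduct peaks chosen by software and checked manually.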

In the case of CCN(CC)c1cc2c(cc1NC(=O)c1ccco1)n(C)c(=O)c(=O)n2C, the RP-LC retention time is reported as 724 s.

For Cc1noc([C@@H]2CN(Cc3c(F)cccc3F)C[C@H]2CO)n1, the RP-LC retention time was 562 s.

COCc1nc(C2CCN(S(=O)(=O)c3ccc4c(c3)OCCO4)C2)no1 (stereo not drawn) gave an RP-LC retention time of 779 s.

O=C(C1CC(=O)N(c2n[nH]c3cccc(F)c23)C1)N1CCN(Cc2ccccc2)CC1 (stereo not drawn) gave an RP-LC retention time of 598 s.

COc1ccc(C2C(=O)N(C3CCCCC3)CC(=O)N2Cc2cccs2)cc1OC (stereo not drawn) showed an RP-LC retention time of 882 s.

COc1cccc(-c2noc(CN3C(=O)COc4cc(C(C)(C)C)ccc43)n2)c1 showed an RP-LC retention time of 1200 s.

COCCN1C(=O)CCc2cc(NS(=O)(=O)c3cccs3)ccc21 showed an RP-LC retention time of 706 s.

For Cc1cccc(N2CCN(C(=O)C3CCCN(c4cnc5nccnc5c4)C3)CC2)c1 (stereo not drawn), the RP-LC retention time was 775 s.

For Cc1ccc(C)c(N2CCN(C(=O)c3cn4ccccc4n3)CC2)c1, the RP-LC retention time was 771 s.

Work on CSc1cccc(NC(=O)NC2CCN(c3cc(C)cc(C)c3)C2=O)c1 (stereo not drawn) yielded an RP-LC retention time of 929 s.

Compound CC(=O)Oc1ccc(OC(C)=O)c2c1CC(C)=C(C)C2 has an RP-LC retention time of 1110 s.

In the case of C[C@@]1(C(=O)Nc2ccc(F)nc2)CCCN1c1nc(Nc2cc(C3CC3)[nH]n2)c2cccn2n1, the RP-LC retention time is reported as 946 s.

With CC(=O)N1CCc2cc(N3CC(C(=O)NCc4ccccc4F)CC3=O)ccc21 (stereo not drawn) the RP-LC retention time was 763 s.

For COc1cccc(NC(=O)C2CCN(c3nc4ccc(-c5cncnc5)nc4s3)CC2)c1, the RP-LC retention time was 736 s.

CCCC(=O)Nc1sc2c(c1C(=O)Nc1ccccc1C)CCC2 gave an RP-LC retention time of 1250 s.

Compound CC(C)C(=O)Nc1ccc(-n2cnc(C(=O)N3CCSCC3)c2)nc1 has an RP-LC retention time of 679 s.

For Cc1nc2cccnc2n1CC1CCCN(S(=O)(=O)c2cccc(Br)c2)C1 (stereo not drawn), the RP-LC retention time was 735 s.

With C=Cc1ccc(Cn2nc3c(S(=O)(=O)N4CCc5ccccc5C4)cccn3c2=O)cc1 the RP-LC retention time was 1050 s.

Work on CCOc1ccc(-c2noc(N3CCC(C(=O)N4CCCC4)CC3)n2)cc1OC yielded an RP-LC retention time of 782 s.

Compound COC(=O)c1ccc(Cl)cc1NC(=O)N1CCN(CCn2cnc3cccnc32)CC1 has an RP-LC retention time of 663 s.

Compound Cc1ccc(Nc2c(-c3ccc(C(=O)O)cc3)nc3cnccn23)c(Br)c1 has an RP-LC retention time of 1080 s.

In the case of O=C(NCC1(CO)CC1)c1c(F)cccc1Cl, the RP-LC retention time is reported as 609 s.

Work on O=C(NCC1CCCO1)N1CCc2[nH]nc(-c3ccccc3)c2C1 (stereo not drawn) yielded an RP-LC retention time of 644 s.

Cc1ccc(C2NC(=O)c3ccccc3N2)s1 (stereo not drawn) showed an RP-LC retention time of 705 s.

In the case of CC1CCN(S(=O)(=O)c2nn(C)cc2C(=O)NCc2cc(F)cc(F)c2)CC1, the RP-LC retention time is reported as 969 s.

In the case of CCN1CCN(CCCNC(=O)C2CCCN(c3nn4c(=O)c5c(nc4s3)CCCC5)C2)CC1 (stereo not drawn), the RP-LC retention time is reported as 554 s.

In the case of O=C1CCCN1CCCN1C(=O)[C@H]2CN(Cc3cccc(F)c3F)C[C@H]2C1=O, the RP-LC retention time is reported as 625 s.

CCC(=O)N1CC(n2cc(C(=O)NCC3CC3)nn2)C1 showed an RP-LC retention time of 617 s.

For CCN1C(=O)c2cccnc2Sc2cc(NC(=O)c3ccccc3OC)ccc21, the RP-LC retention time was 868 s.

With O=C(CSc1cc(N2CCN(c3ccccc3F)CC2)ncn1)NC1CCCC1 the RP-LC retention time was 963 s.

In the case of CCS(=O)(=O)N1CC(=O)N(c2ccc(Cl)cc2C)C(C)(C(=O)NCc2ccccc2)C1 (stereo not drawn), the RP-LC retention time is reported as 906 s.

With CCOCCCNC(=O)N1c2ccccc2CC1c1nc(C(C)C)no1 (stereo not drawn) the RP-LC retention time was 901 s.

Work on O=C(CN1C(=O)CCSc2ccccc21)NCCCN1CCN(Cc2ccccc2)CC1 yielded an RP-LC retention time of 614 s.

Compound Cc1cc(C)n2c(Nc3ccccc3)c(-c3ccc(Br)cc3O)nc2n1 has an RP-LC retention time of 1120 s.

CCC(CC)C(=O)Nc1nc(-c2ccccc2)c(-c2ccccc2)o1 showed an RP-LC retention time of 1040 s.

Work on O=C(c1csc(N2CCN(c3ccccc3)CC2)n1)N1CCC(N2CCCCC2)CC1 yielded an RP-LC retention time of 668 s.

COc1ccc(N2CCN(c3nccc4ccc(C(=O)NC5CCCC5)cc34)CC2)cc1 gave an RP-LC retention time of 734 s.

In the case of Cc1ccc(-n2nnnc2CN2CCN(C(=O)CSc3nnnn3C)CC2)cc1, the RP-LC retention time is reported as 664 s.

With Cc1cc(N(C)C)nc(N2CCN(S(=O)(=O)c3ccc(-c4ccccc4)cc3)CC2)n1 the RP-LC retention time was 814 s.

O=C([C@@H]1COCC(=O)N1Cc1ccccc1)N1CCN(Cc2ccc3c(c2)OCO3)CC1 gave an RP-LC retention time of 606 s.

With O=C([C@@H]1C[C@H](Oc2cccnc2)CN1C(=O)c1ccc2ncccc2c1)N1CCCC1 the RP-LC retention time was 544 s.

Work on CCCCc1nc(N2CCN(C(=O)c3ccco3)CC2)c(C#N)c2c1COC(C)(C)C2 yielded an RP-LC retention time of 1190 s.

CCn1c(=O)c2ccccc2n(Cc2nc(-c3ccc(C)c(C)c3)no2)c1=O gave an RP-LC retention time of 1100 s.

Cc1ccc(CN2CCC3(CC2)CC(O)(c2ccccn2)CCO3)o1 (stereo not drawn) gave an RP-LC retention time of 595 s.

CS(=O)(=O)N1CCC2(CC1)CN(c1cccc(F)c1)C2c1ccccc1 (stereo not drawn) gave an RP-LC retention time of 1150 s.

CC(=O)N1CCc2sc(S(=O)(=O)N3CCN(c4ccccc4F)CC3)cc2C1 showed an RP-LC retention time of 905 s.

In the case of Cc1ccc(C)c(S(=O)(=O)N2CCCN(c3ccc(=O)n(-c4ccccc4)n3)CC2)c1, the RP-LC retention time is reported as 947 s.

Compound O=C(COc1ccc(-c2nnc3n2CCCC3)cc1)Nc1ccc(Cl)cc1 has an RP-LC retention time of 757 s.

In the case of CCOc1ccc(NC(=O)N2CCC(n3cnc4cccnc43)CC2)cc1, the RP-LC retention time is reported as 642 s.

In the case of Cc1ccc(-c2ccc3nn(Cc4nc(-c5ccc(Br)cc5)no4)c(=O)n3n2)cc1, the RP-LC retention time is reported as 1100 s.

For O=C(O)c1ccc(Nc2ncc3c(n2)-c2ccc(Cl)cc2C(c2c(F)cccc2F)=NC3)cc1, the RP-LC retention time was 947 s.

With CCS(=O)(=O)c1nc2ccc(NS(=O)(=O)c3cc(C)c(C)cc3C)cc2s1 the RP-LC retention time was 972 s.

Cc1ccc(-c2ncc3c(=O)n(Cc4ccc(Cl)cc4)c(=O)n(C)c3n2)cc1 showed an RP-LC retention time of 1360 s.

In the case of O=C(Cc1ccccc1Br)N1CCN(c2cc(-c3cccs3)[nH]n2)CC1, the RP-LC retention time is reported as 837 s.

Work on Cc1ccnc(NC(=O)C2CCN(S(=O)(=O)c3ccc4c(c3)sc(=O)n4C)CC2)c1 yielded an RP-LC retention time of 645 s.

Compound Cc1cc(C(F)(F)F)nn1CC(=O)NCCn1c(C)cnc1C1CCC1 has an RP-LC retention time of 634 s.

For Cn1cc(CN2CCC(C(=O)NCc3ccc(F)cc3)CC2)c2cc(Cl)ccc21, the RP-LC retention time was 716 s.

For COc1ccc(-c2csc(NC(=O)COc3ccc(Cl)c(Cl)c3)n2)cc1, the RP-LC retention time was 1200 s.

With O=C(Cn1nc2c3cc(-c4ccc(Cl)cc4)nn3ccn2c1=O)Nc1cc(F)ccc1F the RP-LC retention time was 1020 s.

With CCn1cc(C2=CCN(S(=O)(=O)c3ccc(C(C)(C)C)cc3)CC2)c2cccnc21 the RP-LC retention time was 1270 s.

Compound CCCCNC(=O)Cn1c(C)nc2onc(CC)c2c1=O has an RP-LC retention time of 726 s.

In the case of N#Cc1ccc(-c2nc(-c3ccc4c(c3)nnn4CCC(=O)N3CCOCC3)no2)cc1, the RP-LC retention time is reported as 786 s.

With CC(C)CC(=O)NCCc1nc2cccnc2n1-c1ccccc1 the RP-LC retention time was 661 s.

CNC(=O)[C@@H]1C[C@H](Oc2ccccc2)CN1C(=O)Cn1c(=O)oc2ccccc21 showed an RP-LC retention time of 732 s.

O=C(Cn1ncc2c(c1=O)N(C1CC1)C(=O)CS2)NC1CCCCC1 gave an RP-LC retention time of 672 s.

In the case of O=C(Nc1sc2c(c1C(c1ccncc1)N1CCN(c3ccccn3)CC1)CCCC2)c1ccco1 (stereo not drawn), the RP-LC retention time is reported as 630 s.

In the case of O=C(NC1CCN(c2cc(-c3cccs3)[nH]n2)C1)c1ccc2nc[nH]c2c1 (stereo not drawn), the RP-LC retention time is reported as 564 s.

CCCNC(=O)c1ccc2c(c1)CCN2C(C)=O gave an RP-LC retention time of 635 s.

Compound O=C(NCC1CCN(c2cc(-c3ccncc3)[nH]n2)CC1)c1ccc2c(c1)OCO2 has an RP-LC retention time of 598 s.

Work on Cn1cccc1C(=O)N1CCCC1c1nc(-c2ccccc2)n[nH]1 (stereo not drawn) yielded an RP-LC retention time of 716 s.

Compound COCCCNC(=O)CCc1c(-c2ccc(Cl)cc2)nc2ccccn12 has an RP-LC retention time of 607 s.

Compound CN1C(=O)CO[C@@H](C(=O)O)[C@@H]1c1ccccc1 has an RP-LC retention time of 621 s.

With COc1cccc(N2CCN(S(=O)(=O)c3cc4[nH]c(=O)[nH]c4cc3C)CC2)c1 the RP-LC retention time was 758 s.

O=C(O)c1ccccc1-n1c2ccccc2c2ccccc21 showed an RP-LC retention time of 1050 s.

O=C(Cc1ccccc1)N1CC(Oc2ccc(-c3nc(-c4ccccc4)no3)cc2)C1 showed an RP-LC retention time of 1150 s.

Compound CNc1nc(SC)n(C)c(=O)c1N=O has an RP-LC retention time of 667 s.

With Cc1ccc(-c2csc(-n3nc(C)c(CC(=O)NCc4ccccc4)c3C)n2)cc1 the RP-LC retention time was 1160 s.

With O=C(Cn1c2ccccc2c2ncn(Cc3nc(C4CC4)no3)c(=O)c21)NC1CCCCC1 the RP-LC retention time was 834 s.

In the case of COc1ccc(S(=O)(=O)N2CCN(c3cc(C)nc(Nc4ccc(C)cc4)n3)CC2)cc1Cl, the RP-LC retention time is reported as 801 s.

In the case of Cc1cccc(NC(=O)c2cc(C)n3nccc3n2)c1, the RP-LC retention time is reported as 955 s.

With CC(C)n1c(N2CCCN(C(=O)c3ccc(F)c(F)c3)CC2)cc(=O)n(C(C)C)c1=O the RP-LC retention time was 859 s.

For O=C(CN1C(=O)CSc2ccc(C(=O)N3CCCCC3)cc21)NCCN1CCCCC1, the RP-LC retention time was 612 s.

Compound CC(C)Cn1c(CCNC(=O)c2ccccc2)nc2cccnc21 has an RP-LC retention time of 683 s.

In the case of Cc1ccc(Cl)cc1NC(=O)NC1CCN(c2ccc(F)cc2)C1=O (stereo not drawn), the RP-LC retention time is reported as 867 s.

COCCCNC(=O)c1cc(-c2ccc(OC)c(OC)c2)nc2n[nH]c(-c3ccc(OC)cc3)c12 showed an RP-LC retention time of 724 s.

For O=C(Cc1ccccc1Cl)Nc1cnc(N2CCCC2)nc1, the RP-LC retention time was 604 s.

Cc1ccn2cc(-c3ccc(NC(=O)c4ccc([N+](=O)[O-])cc4Cl)cc3)nc2n1 showed an RP-LC retention time of 660 s.

C=CCSc1nc(N)c2c(C)c(C(=O)O)sc2n1 showed an RP-LC retention time of 708 s.
